Experimental data: PubChem BioAssay AID651865 (The Scripps Research Institute Molecular Screening Center, 2012)

Biological target: Protein-arginine deiminase type-2 (Homo sapiens) (UniProt Q9Y2J8)
Assay: PubChem AID 651865
Conditions: recombinant PAD2, BAEE citrulline colorimetric, inactivation kinetics; hits give high values

Sequence of Protein-arginine deiminase type-2 (Homo sapiens) (Q9Y2J8 whole entry, looked up): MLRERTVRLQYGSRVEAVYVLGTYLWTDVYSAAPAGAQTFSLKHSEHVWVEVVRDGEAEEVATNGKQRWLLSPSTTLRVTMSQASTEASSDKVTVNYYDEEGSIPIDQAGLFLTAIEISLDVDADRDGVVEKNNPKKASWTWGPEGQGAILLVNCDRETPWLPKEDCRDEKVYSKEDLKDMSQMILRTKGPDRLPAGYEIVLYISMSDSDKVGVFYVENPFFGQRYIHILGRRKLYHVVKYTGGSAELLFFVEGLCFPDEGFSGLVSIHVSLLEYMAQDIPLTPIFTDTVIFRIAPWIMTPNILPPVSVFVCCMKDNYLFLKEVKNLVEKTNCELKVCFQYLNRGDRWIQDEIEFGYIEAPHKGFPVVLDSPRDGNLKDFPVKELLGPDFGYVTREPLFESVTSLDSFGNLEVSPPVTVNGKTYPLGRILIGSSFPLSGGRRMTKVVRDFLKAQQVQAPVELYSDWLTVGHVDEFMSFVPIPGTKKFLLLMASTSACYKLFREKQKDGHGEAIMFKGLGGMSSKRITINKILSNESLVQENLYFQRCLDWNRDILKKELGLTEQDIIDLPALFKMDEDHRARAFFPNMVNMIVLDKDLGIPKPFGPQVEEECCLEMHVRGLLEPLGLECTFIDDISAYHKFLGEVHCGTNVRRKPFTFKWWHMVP

kinact/KI: 122 M⁻¹ s⁻¹
Compound: NC1=CC(=O)c2ccc(-c3cccc(C(=O)O)n3)nc2C1=O
